What was measured:
[1] = target: T1, DNA repair nuclease/redox regulator APEX1 (Homo sapiens, UniProt P27695); assay: Inhibition of human APE1 measured every 5 mins for 60 mins by FAM fluorophore based fluorescence assay
[2] = target: T1, DNA repair nuclease/redox regulator APEX1; assay: Inhibition of human APE1 assessed as reduction in abasic sites DNA cleavage using 6-FAM/TAMRA labelled 17-Tphi as substrate by fluorescence-based assay
[3] = target: T1, DNA repair nuclease/redox regulator APEX1; assay: Inhibition of recombinant human APE1 using 5'-F-GCCCCCXGGGGACGTACGATATCCCGCTCC-3' as substrate preincubated for 10 mins followed by substrate addition measured at 5 mins intervals for 30 mins by fluorescence-based assay
[4] = target: T1, DNA repair nuclease/redox regulator APEX1; assay: Inhibition of His-tagged human APE1 expressed in Escherichia coli M15 assessed as reduction in cleavage of 26 mer substrate to 13 mer products pre-incubated for 30 mins before substrate addition for 15 mins using 5' end [32P] AP site containing 26 mer oligonucleotide by polyacrylamide gel electrophoresis
[5] = target: T1, DNA repair nuclease/redox regulator APEX1; assay: Inhibition of nuclease activity of APE1 in human glioblastoma cells assessed as reduction in AP site DNA cleavage; assay type: cell-based
[6] = target: T1, DNA repair nuclease/redox regulator APEX1; assay: Inhibition of human APE1 using a 5'-TAMRA labelled THF abasic site double-stranded oligodeoxynucleotide as substrate in presence of Mg2+ by fluorescence polarization displacement assay
[7] = target: T1, DNA repair nuclease/redox regulator APEX1; assay: Inhibition of recombinant human APE1 using a 5'-FAM/3'-Dabsyl labelled double-stranded DNA as substrate after 30 mins by fluorescence-based assay
[8] = target: T1, DNA repair nuclease/redox regulator APEX1; assay: Inhibition of N-terminal hexa-His tagged human APE1 expressed in Escherichia coli BL21 (Rosetta) using fluorescein-dabcyl-containing oligonucleotide as substrate measured over 5 mins by high-throughput fluorescence assay
[9] = target: T1, DNA repair nuclease/redox regulator APEX1; assay: Inhibition of […] activity of full length N-terminal hexa-His SUMO-fused human APE1 using HEX-labeled THF oligonucleotide as substrate preincubated for 30 to 120 mins followed by substrate addition measured after 15 mins by fluorescence assay
[10] = target: T1, DNA repair nuclease/redox regulator APEX1; assay: Inhibition of APE1 in human HeLa cells; assay type: cell-based
[11] = test system: Panel NCI-60 (60 carcinoma cell lines); assay: Growth inhibition in human NCI60 cells after 72 hrs by CellTiterGlo assay; assay type: functional
[12] = target: T1, DNA repair nuclease/redox regulator APEX1; assay: Binding affinity to full length human APE1 expressed in Escherichia coli BL21/DE3
[13] = target: T1, DNA repair nuclease/redox regulator APEX1; assay: Inhibition of APE1 in human HeLa cells assessed as reduction in AP site cleavage 5'-[gamma-32P]CTCGCAAGUGGGTACCGA-3' as substrate after 1 hr; assay type: cell-based

T1 sequence (P27695 whole entry): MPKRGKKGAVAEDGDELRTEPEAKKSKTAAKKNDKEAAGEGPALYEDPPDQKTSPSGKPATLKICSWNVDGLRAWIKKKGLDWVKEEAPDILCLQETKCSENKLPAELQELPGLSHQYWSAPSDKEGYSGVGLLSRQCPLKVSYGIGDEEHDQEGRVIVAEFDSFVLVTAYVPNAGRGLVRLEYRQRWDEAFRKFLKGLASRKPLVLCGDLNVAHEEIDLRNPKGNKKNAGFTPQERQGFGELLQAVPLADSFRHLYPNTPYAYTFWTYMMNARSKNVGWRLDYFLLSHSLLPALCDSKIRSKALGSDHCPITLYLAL

In the case of CC1=C/C(=C(/c2ccc(O)c(C)c2)c2ccccc2C(=O)O)C=CC1=O, the IC50 [1] is reported as 1700 nM.
c1cc2ccc3cc2cc1CNCCNCCNCc1ccc2ccc(cc2c1)CNCCNCCNC3 gave an IC50 [2] of 57 nM.
Compound O=C(OCC(=O)N1NC(c2ccc3ccccc3c2)=C[C@@H]1c1ccccc1)c1ccc([N+](=O)[O-])s1 has an IC50 [3] of 3000 nM.
With COc1c(C(=O)O)cccc1C(=O)NCc1ccc(Cl)c(Cl)c1 the IC50 [4] was 18000 nM.
For O=c1oc(-c2ccccc2F)nc2cc(Cl)ccc12, the IC50 [5] was 1600 nM.
CC(C)(C)c1ccc(OC(=O)c2sc3ccccc3c2Cl)c(C(C)(C)C)c1 was tested, and the IC50 [5] was 800 nM.
Work on C=C1S/C(=N\c2ccccc2Cl)N(C(=O)c2sc3ccccc3c2Cl)C12CCCCC2 yielded an IC50 [5] of 1400 nM.
Compound O=C1NC(=O)N(Cc2ccco2)C(=O)/C1=C/C=C/c1ccco1 has an IC50 [6] of 2800 nM.
Work on O=C(O)CC[C@H]1N[C@@]2(C(=O)Nc3c(Cl)cccc32)[C@H]2C(=O)N(Cc3ccc4c(c3)OCO4)C(=O)[C@@H]12 yielded an IC50 [7] of 1800 nM.
In the case of CC(C)(C)c1ccc(S(=O)(=O)Oc2ccc(-c3ccc(Oc4c(Cl)cccc4[N+](=O)[O-])cc3)cc2)cc1, the IC50 [5] is reported as 1700 nM.
COc1cc2c(ccc3cc(OC)c(OC)c(O)c32)cc1O was tested, and the IC50 [6] was 400 nM.
Compound O=S(=O)(Oc1ccc(-c2ccc(OS(=O)(=O)c3ccc(Cl)c(Cl)c3)cc2)cc1)c1ccc(Cl)c(Cl)c1 has an IC50 [5] of 1800 nM.
For Cc1cc(C)c2c(N)c3cccc(C)c3nc2n1, the IC50 [8] was 2100 nM.
CCCCCCCCC/C(=C\C1=C(C)C(=O)C(OC)=C(OC)C1=O)C(=O)NOC gave an IC50 [9] of 8500 nM.
Work on Cc1ccc(C)n1-c1ccc(OCC(=O)O)cc1 yielded an IC50 [8] of 1700 nM.
O=C(CSc1ncn[nH]1)Nc1cccc2c1C(=O)c1ccccc1C2=O showed an IC50 [10] of 4000 nM.
Work on O=C(c1cc2ccccc2o1)[C@@H](O)c1nc2ccccc2s1 yielded an IC50 [3] of 2000 nM.
Nc1c(S(N)(=O)=O)cc(S(N)(=O)=O)cc1S(N)(=O)=O showed an IC50 [1] of 1400 nM.
Work on Brc1cc(-c2cc(Br)c(Br)c(Br)c2)cc(Br)c1Br yielded an IC50 [5] of 200 nM.
In the case of CCn1c2ccccc2c2cc(/C=N/Nc3cc(C)nc4cc5c(cc34)OCO5)ccc21, the GI50 [11] is reported as 4200 nM.
For Cc1sc(-c2ccc(Cl)cc2)nc1-c1ccc(-c2ccccc2F)cc1, the IC50 [5] was 1300 nM.
CCOC(=O)c1cc(-c2ccc(/C=C3/C(=O)N(c4ccc(C(=O)O)cc4)N=C3C)o2)ccc1Cl showed an IC50 [6] of 6800 nM.
Work on Cc1coc2c1C(=O)C(=O)c1c-2ccc2c1CCCC2(C)C [TANSHINONE IIA] yielded a Kd [12] of 0.88 nM.
Compound COc1c(C(=O)O)cccc1C(=O)NCc1cccc(Cl)c1 has an IC50 [4] of 16000 nM.
Work on O=c1oc(-c2ccc(Cl)cc2Cl)nc2ccc([N+](=O)[O-])cc12 yielded an IC50 [5] of 2000 nM.
In the case of c1cc2ccc3cc2cc1CNCCOCCNCc1ccc2ccc(cc2c1)CNCCOCCNC3, the IC50 [2] is reported as 55 nM.
For Cc1sc(Nc2cc(Cl)cc(Cl)c2)nc1-c1ccc(-c2ccccc2F)cc1, the IC50 [5] was 900 nM.
O=C(Nc1cccc(Cl)c1)c1noc2c1CCC2 was tested, and the IC50 [8] was 1600 nM.
For COc1ccc(CNC(=O)c2cccc(C(=O)O)c2OC)cc1OC, the IC50 [4] was 18000 nM.
O=C(O)c1cc2cccc([N+](=O)[O-])c2[nH]1 was tested, and the IC50 [13] was 3060 nM.
With O=[N+]([O-])c1cccc(S(=O)(=O)[N-]c2nc3ccccc3nc2-[n+]2ccc(Cc3ccccc3)cc2)c1 the IC50 [7] was 6800 nM.
COc1cccc(CNC(=O)c2cccc(C(=O)O)c2OC)c1 showed an IC50 [4] of 19000 nM.
